Where two headings read alike, the source gives them in different places.
Legend:
[1] = target: T1, menin/MLL (terbium chelate-labeled menin, FITC-MBM1 peptide) (Homo sapiens, UniProt O00255, T541A); test: Menin/MLL homogenous time-resolved fluorescence (HTRF) assay; type: binding; conditions: 30 min incubation
T1 construct: Menin (a.a 1-610-6xhis tag)
T1 sequence (O00255 with tags, fused parts or gaps T541A): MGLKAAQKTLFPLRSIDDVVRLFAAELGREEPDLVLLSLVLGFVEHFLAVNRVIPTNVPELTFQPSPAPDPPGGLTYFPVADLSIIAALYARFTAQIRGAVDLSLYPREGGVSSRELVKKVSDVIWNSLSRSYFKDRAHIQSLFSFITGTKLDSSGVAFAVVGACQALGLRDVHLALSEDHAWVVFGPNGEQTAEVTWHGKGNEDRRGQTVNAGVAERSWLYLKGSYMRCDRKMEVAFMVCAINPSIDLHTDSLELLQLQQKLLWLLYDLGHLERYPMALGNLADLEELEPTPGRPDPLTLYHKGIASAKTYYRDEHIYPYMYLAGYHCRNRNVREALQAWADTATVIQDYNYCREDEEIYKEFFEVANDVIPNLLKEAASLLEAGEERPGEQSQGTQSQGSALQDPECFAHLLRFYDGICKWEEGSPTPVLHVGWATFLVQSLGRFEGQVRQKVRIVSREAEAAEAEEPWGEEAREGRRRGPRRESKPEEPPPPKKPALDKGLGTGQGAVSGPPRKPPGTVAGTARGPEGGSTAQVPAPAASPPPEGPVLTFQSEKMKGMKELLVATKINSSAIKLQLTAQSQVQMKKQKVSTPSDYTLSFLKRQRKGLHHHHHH
In short: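 Percent inhibition, calculated from the 520/490 nm HTRF ratio against high and low controls, was fitted for IC50 with a 0.1 nM detection limit. Reactions held 200 pM Tb-menin and 75 nM FITC-MBM1 in pH 7.5 Tris buffer with 0.5% DMSO.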

[2] = system: MOLM14 cells; test: Proliferation assay, spheroid-like growth, MOLM14 (MLL-AF9 rearranged); type: cell-based, human; conditions: 8 days, confluence as measure of spheroid size, read-out: spheroid assay_OneTime MOLM14 IC50
In short: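 Seed cells at linear-growth densities in low-attachment wells; add test compound at several concentrations, normalized to 0.3% DMSO; incubate 8 days at 37 °C; image spheroids and measure confluence; calculate absolute IC50 against DMSO and reference-compound controls.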

SMILES: CC(C)[C@H]([C@H]1C[C@@H](Nc2n[nH]c3ncccc23)C1)N1CC2(CCN(c3ncnnc3Oc3ccc(F)cc3-c3cncnc3C3CC3)C2)C1 (single isomer, unassigned) [Compound 448]
- IC50 [1]: 0.18 nM
- IC50 ([2]; Homo sapiens, MOLM-14, 192 h): 4.6 nM

SMILES: CNC(=O)c1ncc(N[C@H]2C[C@@H]([C@@H](C(C)C)N3CC4(CCN(c5ncnnc5Oc5ccc(F)cc5-c5cncnc5C5CC5)C4)C3)C2)s1 (single isomer, unassigned) [Compound 449]
- IC50 [1]: 0.09 nM
- IC50 ([2]; Homo sapiens, MOLM-14, 192 h): 8.4 nM

SMILES: CNC(=O)c1cccc(N[C@H]2C[C@@H](C(C(C)C)N3CC4(CCN(c5ncnnc5Oc5ccc(F)cc5-c5cncnc5C5CC5)C4)C3)C2)n1 (single isomer, unassigned) [Compound 450]
- IC50 [1]: 0.08 nM
- IC50 ([2]; Homo sapiens, MOLM-14, 192 h): 7 nM

SMILES: CNC(=O)c1cc(N[C@H]2C[C@@H]([C@@H](C(C)C)N3CC4(CCN(c5ncnnc5Oc5ccc(F)cc5-c5cncnc5C5CC5)C4)C3)C2)ccn1 (single isomer, unassigned) [Compound 451]
- IC50 [1]: 0.15 nM
- IC50 ([2]; Homo sapiens, MOLM-14, 192 h): 11 nM

SMILES: CNC(=O)c1ccnc(N[C@H]2C[C@@H]([C@@H](C(C)C)N3CC4(CCN(c5ncnnc5Oc5ccc(F)cc5-c5cncnc5C5CC5)C4)C3)C2)n1 (single isomer, unassigned) [Compound 452]
- IC50 [1]: 0.11 nM
- IC50 ([2]; Homo sapiens, MOLM-14, 192 h): 20 nM

SMILES: CNC(=O)c1csc(N[C@H]2C[C@@H]([C@@H](C(C)C)N3CC4(CCN(c5ncnnc5Oc5ccc(F)cc5-c5cncnc5C5CC5)C4)C3)C2)n1 (single isomer, unassigned) [Compound 453]
- IC50 [1]: 0.05 nM
- IC50 ([2]; Homo sapiens, MOLM-14, 192 h): 6 nM

SMILES: CC(=O)Nc1nnc(N[C@H]2C[C@@H]([C@@H](C(C)C)N3CC4(CCN(c5ncnnc5Oc5ccc(F)cc5-c5cncnc5C5CC5)C4)C3)C2)s1 (single isomer, unassigned) [Compound 454]
- IC50 [1]: 0.17 nM
- IC50 ([2]; Homo sapiens, MOLM-14, 192 h): 13 nM

SMILES: CNC(=O)c1cnc(N[C@H]2C[C@@H]([C@H](C)N3CC4(CCN(c5ncnnc5Oc5ccc(F)cc5-c5cncnc5C5CC5)C4)C3)C2)s1 (single isomer, unassigned) [Compound 455]
- IC50 [1]: 0.14 nM
- IC50 ([2]; Homo sapiens, MOLM-14, 192 h): 24 nM

SMILES: CC(C)C([C@H]1C[C@@H](Nc2n[nH]c3ncncc23)C1)N1CC2(CCN(c3ncnnc3Oc3ccc(F)cc3-c3cncnc3C3CC3)C2)C1 (single isomer, unassigned) [Compound 458]
- IC50 [1]: 0.16 nM
- IC50 ([2]; Homo sapiens, MOLM-14, 192 h): 27 nM

SMILES: CNC(=O)c1oc(N[C@H]2C[C@@H](C(C(C)C)N3CC4(CCN(c5ncnnc5Oc5ccc(F)cc5-c5cncnc5C5CC5)C4)C3)C2)nc1C (single isomer, unassigned) [Compound 460]
- IC50 [1]: 0.07 nM
- IC50 ([2]; Homo sapiens, MOLM-14, 192 h): 11 nM

SMILES: CNC(=O)c1coc(N[C@H]2C[C@@H](C(C)N3CC4(CCN(c5ncnnc5Oc5ccc(F)cc5-c5cncnc5C5CC5)C4)C3)C2)n1 (single isomer, unassigned) [Compound 461]
- IC50 [1]: 0.2 nM
- IC50 ([2]; Homo sapiens, MOLM-14, 192 h): 63 nM

SMILES: CC(C)[C@H]([C@H]1C[C@@H](Nc2ccc3[nH]c(=O)[nH]c3c2)C1)N1CC2(CCN(c3ncnnc3Oc3ccc(F)cc3-c3cncnc3C3CC3)C2)C1 (single isomer, unassigned) [Compound 462]
- IC50 [1]: 0.27 nM
- IC50 ([2]; Homo sapiens, MOLM-14, 192 h): 89 nM

SMILES: CC(C)[C@H]([C@H]1C[C@@H](Nc2ccnc(N)n2)C1)N1CC2(CCN(c3ncnnc3Oc3ccc(F)cc3-c3cncnc3C3CC3)C2)C1 (single isomer, unassigned) [Compound 463]
- IC50 [1]: 0.082 nM
- IC50 ([2]; Homo sapiens, MOLM-14, 192 h): 29 nM

SMILES: CCOC(=O)c1coc(N[C@H]2C[C@@H]([C@@H](C(C)C)N3CC4(CCN(c5ncnnc5Oc5ccc(F)cc5-c5cncnc5C5CC5)C4)C3)C2)n1 (single isomer, unassigned) [Compound 480]
- IC50 [1]: 0.15 nM
- IC50 ([2]; Homo sapiens, MOLM-14, 192 h): 6 nM

SMILES: CCOC(=O)c1nnc(N[C@H]2C[C@@H](C(C(C)C)N3CC4(CCN(c5ncnnc5Oc5ccc(F)cc5-c5cncnc5C5CC5)C4)C3)C2)o1 (single isomer, unassigned) [Compound 481]
- IC50 [1]: 0.14 nM
- IC50 ([2]; Homo sapiens, MOLM-14, 192 h): > 940 nM

SMILES: CCOC(=O)c1nnc(N[C@H]2C[C@@H](C(C(C)C)N3CC4(CCN(c5ncnnc5Oc5ccc(F)cc5-c5cncnc5C5CC5)C4)C3)C2)s1 (single isomer, unassigned) [Compound 482]
- IC50 [1]: 0.18 nM
- IC50 ([2]; Homo sapiens, MOLM-14, 192 h): 15 nM

SMILES: CCOC(=O)c1sc(N[C@H]2C[C@@H](C(C(C)C)N3CC4(CCN(c5ncnnc5Oc5ccc(F)cc5-c5cncnc5C5CC5)C4)C3)C2)nc1C (single isomer, unassigned) [Compound 483]
- IC50 [1]: 0.07 nM
- IC50 ([2]; Homo sapiens, MOLM-14, 192 h): 17 nM

SMILES: CC(C)C([C@H]1C[C@@H](Nc2nnc(N)s2)C1)N1CC2(CCN(c3ncnnc3Oc3ccc(F)cc3-c3cncnc3C3CC3)C2)C1 (single isomer, unassigned) [Compound 488]
- IC50 [1]: 0.15 nM
- IC50 ([2]; Homo sapiens, MOLM-14, 192 h): 4 nM

SMILES: CC(C)C([C@H]1C[C@@H](NC(=O)OC(C)(C)C)C1)N1CC2(CCN(c3ncnnc3Oc3ccc(F)cc3-c3cncnc3C3CC3)C2)C1 (single isomer, unassigned) [Compound 491a]
- IC50 [1]: 0.13 nM
- IC50 ([2]; Homo sapiens, MOLM-14, 192 h): 4.9 nM

SMILES: CC(C)C([C@H]1C[C@@H](N2CC3(COC3)C2)C1)N1CC2(CCN(c3ncnnc3Oc3ccc(F)cc3-c3ncc(C#N)cc3C3CC3)C2)C1 (some centres unmarked) [Compound 140]
- IC50 [1]: 0.5 nM
- IC50 ([2]; Homo sapiens, MOLM-14, 192 h): 42 nM

SMILES: CC(=O)N1CCN([C@H]2C[C@@H](C(C(C)C)N3CC4(CCN(c5ncnnc5Oc5ccc(F)cc5-c5cnc(C#N)nc5C5CC5)C4)C3)C2)CC1 (some centres unmarked) [Compound 169]
- IC50 [1]: 0.5 nM
- IC50 ([2]; Homo sapiens, MOLM-14, 192 h): 51 nM

SMILES: CC(=O)N[C@H]1C[C@@H](C(C(C)C)N2CC3(CCN(c4ncnnc4Oc4ccc(F)cc4-c4nnccc4C4CC4)C3)C2)C1 (some centres unmarked) [Compound 183]
- IC50 [1]: 0.4 nM
- IC50 ([2]; Homo sapiens, MOLM-14, 192 h): 160 nM

SMILES: CC(C)C([C@H]1C[C@@H](Nc2ncccn2)C1)N1CC2(CCN(c3ncnnc3Oc3ccc(F)cc3-c3cncnc3C3CC3)C2)C1 (some centres unmarked) [Compound 192]
- IC50 [1]: 4.8 nM
- IC50 ([2]; Homo sapiens, MOLM-14, 192 h): 1040 nM

SMILES: CC(=O)N1CC2CN([C@H]3C[C@@H]([C@H](C(C)C)N4CC5(CCN(c6ncnnc6Oc6ccc(F)cc6-c6cnc(C)nc6C6CC6)C5)C4)C3)CC2C1 (some centres unmarked) [Compound 375]
- IC50 [1]: 0.055 nM
- IC50 [2]: 4 nM

SMILES: CC(=O)N1CC2CN([C@H]3C[C@H]([C@H](C(C)C)N4CC5(CCN(c6ncnnc6Oc6ccc(F)cc6-c6cnc(C)nc6C6CC6)C5)C4)C3)CC2C1 (some centres unmarked) [Compound 376]
- IC50 [1]: 0.62 nM
- IC50 ([2]; Homo sapiens, MOLM-14, 192 h): 100 nM

SMILES: CC(=O)N1CC2CN([C@H]3C[C@@H]([C@H](C(C)C)N4CC5(CCN(c6ncnnc6Oc6ccc(F)cc6-c6cnc(C)nc6C6CC6)C5)C4)C3)CC2C1 (some centres unmarked) [Compound 378]
- IC50 [1]: 0.106 nM
- IC50 [2]: 1.6 nM

SMILES: Cc1ncc(-c2cc(F)ccc2Oc2nncnc2N2CCC3(C2)CN([C@@H](C(C)C)[C@H]2C[C@@H](N4CCC5(CN(C(=O)C6CC6)C5)C4)C2)C3)c(C2CC2)n1 [Compound 380]
- IC50 [1]: 0.16 nM
- IC50 ([2]; Homo sapiens, MOLM-14, 192 h): 3.7 nM

SMILES: CC(=O)N1CC2(CCN([C@H]3C[C@@H]([C@H](C(C)C)N4CC5(CCN(c6ncnnc6Oc6ccc(F)cc6-c6cnc(C)nc6C6CC6)C5)C4)C3)C2)C1 [Compound 381]
- IC50 [1]: 0.14 nM
- IC50 ([2]; Homo sapiens, MOLM-14, 192 h): 8.1 nM

SMILES: Cc1ncc(-c2cc(F)ccc2Oc2nncnc2N2CCC3(C2)CN([C@@H](C(C)C)[C@H]2C[C@@H](N4CCC5(COC5)C4)C2)C3)c(C2CC2)n1 [Compound 382]
- IC50 [1]: 0.08 nM
- IC50 ([2]; Homo sapiens, MOLM-14, 192 h): 7 nM

SMILES: Cc1ncc(-c2cc(F)ccc2Oc2nncnc2N2CCC3(C2)CN([C@@H](C(C)C)[C@H]2C[C@@H](N4CC[C@H](C(=O)N(C)C)C4)C2)C3)c(C2CC2)n1 [Compound 383]
- IC50 [1]: 0.04 nM
- IC50 ([2]; Homo sapiens, MOLM-14, 192 h): 2.3 nM

SMILES: Cc1ncc(-c2cc(F)ccc2Oc2nncnc2N2CCC3(C2)CN([C@@H](C(C)C)[C@H]2C[C@@H](N4CC[C@H](C(=O)NC5CC5)C4)C2)C3)c(C2CC2)n1 [Compound 384]
- IC50 [1]: 0.085 nM
- IC50 ([2]; Homo sapiens, MOLM-14, 192 h): 0.7 nM

SMILES: Cc1ncc(-c2cc(F)ccc2Oc2nncnc2N2CCC3(C2)CN([C@@H](C(C)C)[C@H]2C[C@@H](N4C[C@@H]5[C@H](C4)[C@H]5NC(=O)C4CC4)C2)C3)c(C2CC2)n1 [Compound 385]
- IC50 [1]: 0.026 nM
- IC50 ([2]; Homo sapiens, MOLM-14, 192 h): < 1.8 nM

SMILES: Cc1ncc(-c2cc(F)ccc2Oc2nncnc2N2CCC3(C2)CN([C@@H](C(C)C)[C@H]2C[C@@H](N4CC[C@@H](NC(=O)C5CC5)C4)C2)C3)c(C2CC2)n1 [Compound 386]
- IC50 [1]: 0.059 nM
- IC50 ([2]; Homo sapiens, MOLM-14, 192 h): < 1.8 nM

SMILES: Cc1ncc(-c2cc(F)ccc2Oc2nncnc2N2CCC3(C2)CN([C@@H](C(C)C)[C@H]2C[C@@H](N4CC[C@H](NC(=O)C5CC5)C4)C2)C3)c(C2CC2)n1 [Compound 387]
- IC50 [1]: 0.026 nM
- IC50 ([2]; Homo sapiens, MOLM-14, 192 h): < 1.8 nM

Source: patent publication US20240417405A1, “Substituted Spiro Derivatives” (Janssen Pharmaceutica NV, priority 2021, published 2024)
